Patent US10072055B2, “Anti-inflammatory pharmaceutical products” (Resother Pharma APS, priority 2011, dated 2018)
“Also recorded” adds a separate entry of the source. Ends that are not written are not given here.

Assays:
FPR2 [1] = target: T1, FPR2 (Homo sapiens, UniProt P25090); experiment: Binding affinity to FPR2
T1 sequence (P25090 1-351): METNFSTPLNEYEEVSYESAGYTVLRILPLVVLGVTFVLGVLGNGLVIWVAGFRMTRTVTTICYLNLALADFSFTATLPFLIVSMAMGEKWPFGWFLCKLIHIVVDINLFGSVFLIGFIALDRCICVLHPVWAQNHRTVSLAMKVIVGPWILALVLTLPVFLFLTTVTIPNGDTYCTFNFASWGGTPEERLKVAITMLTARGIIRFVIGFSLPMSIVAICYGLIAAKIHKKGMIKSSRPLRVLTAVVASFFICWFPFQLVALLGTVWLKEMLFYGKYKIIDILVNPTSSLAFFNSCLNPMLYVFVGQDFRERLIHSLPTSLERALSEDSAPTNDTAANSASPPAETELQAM

HNE = target: T2, HNE (Homo sapiens, UniProt P08246); experiment: In vitro degradation/digest in the presence of HNE; type: in vitro ADME
T2 sequence (P08246 30-267): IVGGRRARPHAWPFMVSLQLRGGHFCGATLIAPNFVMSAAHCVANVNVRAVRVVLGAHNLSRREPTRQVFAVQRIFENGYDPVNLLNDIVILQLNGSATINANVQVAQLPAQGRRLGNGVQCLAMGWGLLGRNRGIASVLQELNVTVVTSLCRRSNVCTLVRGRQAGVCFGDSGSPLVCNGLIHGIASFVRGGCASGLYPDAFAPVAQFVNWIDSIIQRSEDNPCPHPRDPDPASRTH
Procedure: FIG. 9 is a logarithmic plot of the degradation over time of three polypeptides of the present disclosure, UGP022 (SEQ ID NO: 5), UGP025 (SEQ ID NO: 7) and UGP026 (SEQ ID NO: 8) in the presence of HNE, a protease implicated in the in vivo cleavage of Annexin 1.
In an attempt to improve the potency and increase the half-life of the UGP022 peptide of the present disclosure (SEQ ID NO: 5), a series of in vitro PR3 and FINE digests were conducted. […] This cleavage site is not believed to have been identified in the literature.
Degradation tests of three polypeptides of the present disclosure, UGP022 (SEQ ID NO:5), UGP025 (SEQ ID NO:7) and UGP026 (SEQ ID NO:8) in the presence of PR3, a protease implicated in the in vivo cleavage of Annexin 1, indicated better stability for polypeptides with Leucine substitution at position 24 relative to a polypeptide lacking that feature. Position 24 corresponds to position 25 of Annexin 1 because all tested polypeptides lack the methionine at position 1 of natural Annexin. A 47-residue polypeptide outperformed an otherwise identical 49-residue polypeptide. Similar results were obtained in degradation tests in the presence of FINE.
FIG. 9 is a logarithmic plot of the degradation over time of three polypeptides of the present disclosure, UGP022 (SEQ ID NO:5), UGP025 (SEQ ID NO:7) and UGP026 (SEQ ID NO:8) in the presence of […], a protease implicated in the in vivo cleavage of Annexin 1. […] Also, a 47-residue polypeptide amidated at its C-terminus outperformed an otherwise identical 49-residue polypeptide amidated at its C-terminus.

FPR1 = target: T3, FPR1 (Homo sapiens, UniProt P21462); experiment: FPR1 activation (ERK phosphorylation and intracellular calcium fluxes); type: cell-based
T3 sequence (P21462 1-350): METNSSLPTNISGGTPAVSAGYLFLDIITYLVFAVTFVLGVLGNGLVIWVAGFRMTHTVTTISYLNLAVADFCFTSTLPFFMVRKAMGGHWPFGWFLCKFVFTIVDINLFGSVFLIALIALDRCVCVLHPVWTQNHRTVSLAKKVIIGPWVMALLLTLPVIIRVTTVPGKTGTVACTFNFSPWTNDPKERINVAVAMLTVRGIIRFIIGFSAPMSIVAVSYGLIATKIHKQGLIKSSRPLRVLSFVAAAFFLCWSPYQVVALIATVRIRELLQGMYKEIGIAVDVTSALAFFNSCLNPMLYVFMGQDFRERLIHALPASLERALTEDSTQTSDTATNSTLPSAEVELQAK

[2] = tested on: inflamed microcirculation; experiment: Inflamed microcirculation in vivo; set-up: species or system murine
FPR2 [3] = target: T1, FPR2; experiment: FPR2 activation (ERK phosphorylation and intracellular calcium fluxes); type: cell-based
[4] = tested on: leukocyte recruitment into the inflamed airpouch; experiment: Mouse IL-1β air-pouch inflammation model (leukocyte migration); type: in vivo; details: mouse air-pouch
Procedure: FIG. 3A and FIG. 3B are a series of bar charts comparing the anti-inflammatory effects of three polypeptides (Pep57 (SEQ ID NO:12); Pep59 (SEQ ID NO:13) and Pep84 (SEQ ID NO:14)) of the present disclosure versus a vehicle-only control.
FIG. 3A and FIG. 3B are a series of bar charts comparing the anti-inflammatory effects of three polypeptides (Pep57 (SEQ ID NO: 12); Pep59 (SEQ ID NO: 13) and Pep84 (SEQ ID NO: 14)) of the present disclosure versus a vehicle-only control. Mice received 200 μl i.v. of saline+DMSO or a dose of 50 μg per animal of one of the three Ac2-26 derived peptides, immediately before the local injection of mouse IL-1β into 6-day-old airpouches. The extent of cell migration was determined 4 h later, following airpouch washing and staining of migrated cells with Gr1 marker. […] Data are mean±SEM of 5 mice per group. *P<0.05 vs. vehicle group (one way ANOVA).

Row | Substance | affinity to FPR2 over FPR1 (FPR2 [1]) | binding affinity to FPR2 (FPR2 [1]) | stability / resistance to HNE degradation (HNE) | cleavage sites by HNE (HNE; in vitro digest) | activation of FPR1 (FPR1) | anti-inflammatory properties in the inflamed microcirculation [2] | activation of FPR2 (FPR2 [3]) | inhibition of leukocyte infiltration/recruitment in air-pouch model [4]
1 | AMVSEFLKQAWFIENEEQEYVQTLKSSKGGPGSAVSPYPTFNPSSDV-NH2 [UGP025, Leu25-ANXA1(2-48)-NH2] | retain a higher affinity to FPR2 over FPR1 | seems to have a higher affinity to FPR2 than does UGP026 | more resistant to PR3 and FINE than the UGP022 peptide | – | – | – | – | –
2 | AMVSEFLKQAWFIENEEQEYVQTLKSSKGGPGSAVSPYPTFNPSSDVAA-NH2 [UGP026, Leu25-ANXA1(2-50)-NH2] | retain a higher affinity to FPR2 over FPR1 | – | more resistant to PR3 and FINE than the UGP022 peptide | – | – | – | – | –
3 | AMVSEFLKQAWFIENEEQEYVQTVKSSKGGPGSAVSPYPTFNPSSDVAA-NH2 [UGP022, ANXA1(2-50)-NH2] | – | binding affinity to the FPR2 in the nanomolar range; also recorded: showing the highest affinity | – | Ala 10 (Ala11 relative to Annexin 1) and Val 21 (Val22 relative to Annexin 1); also recorded: Val 35 (Val36 relative to Annexin 1) was only cleaved by FINE; also recorded: Val 24 (Val25 relative to Annexin 1) | could activate both FPR1 and FPR2 | potency equivalent to human recombinant Annexin A1 | could activate both FPR1 and FPR2 | more potent than either the UGP021 peptide; also recorded: the more potent at inhibiting leukocyte recruitment into the inflamed airpouch
